Assays:
AR in LNCaP cells = target: T1, AR in LNCaP cells (Homo sapiens, UniProt P10275, T878A); assay: Assay on degradation activity for AR in LNCaP cells (HTRF human androgen receptor detection kit); type: cell-based; conditions: 24 h incubation
T1 construct: Assay on Degradation Activity for AR in LNCaP Cells; endogenous in cells; host or cells: LNCaP cells
T1 sequence (P10275 1-920 T878A): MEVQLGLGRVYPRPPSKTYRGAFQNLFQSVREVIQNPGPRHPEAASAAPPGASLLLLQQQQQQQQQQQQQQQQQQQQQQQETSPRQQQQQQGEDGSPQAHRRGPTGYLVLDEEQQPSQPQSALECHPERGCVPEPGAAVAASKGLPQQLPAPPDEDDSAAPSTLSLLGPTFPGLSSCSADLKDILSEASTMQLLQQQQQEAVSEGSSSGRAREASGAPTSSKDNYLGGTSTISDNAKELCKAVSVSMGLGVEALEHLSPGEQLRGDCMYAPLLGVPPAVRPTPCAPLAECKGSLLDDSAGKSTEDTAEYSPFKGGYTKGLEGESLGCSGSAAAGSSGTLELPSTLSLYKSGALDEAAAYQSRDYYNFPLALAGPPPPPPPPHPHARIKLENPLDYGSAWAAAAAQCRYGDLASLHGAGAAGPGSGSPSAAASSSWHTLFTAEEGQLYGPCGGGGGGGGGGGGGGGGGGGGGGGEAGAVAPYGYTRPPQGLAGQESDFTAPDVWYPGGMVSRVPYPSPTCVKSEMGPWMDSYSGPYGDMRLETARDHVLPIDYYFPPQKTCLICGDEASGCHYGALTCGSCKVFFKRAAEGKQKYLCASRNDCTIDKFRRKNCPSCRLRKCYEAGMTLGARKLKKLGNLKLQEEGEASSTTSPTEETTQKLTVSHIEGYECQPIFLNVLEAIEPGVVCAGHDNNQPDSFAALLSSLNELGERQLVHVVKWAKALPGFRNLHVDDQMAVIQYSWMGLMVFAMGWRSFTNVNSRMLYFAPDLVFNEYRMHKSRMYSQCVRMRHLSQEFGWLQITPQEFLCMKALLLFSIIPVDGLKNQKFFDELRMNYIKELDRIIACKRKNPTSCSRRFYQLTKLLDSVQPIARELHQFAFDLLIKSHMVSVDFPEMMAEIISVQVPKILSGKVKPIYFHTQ
In short: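 LNCaP cells seeded in 2% CSS-FBS phenol red-free 1640 medium overnight, then treated in duplicate with 500 nM–0.488 nM compound for 24 h. AR in lysates quantified by HTRF (Eu cryptate/d2 antibodies, 2 h, 25 °C, 665/620 nm); DC50 and Dmax from four-parameter fits.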

LNCaP cells = assay: Assay on inhibitory activity for LNCaP cell proliferation (CCK-8); type: cell-based; conditions: Homo sapiens, 168 h incubation
In short: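 Cells seeded at 1×10^5 cells/mL in phenol red-free 1640 with 2% CSS-FBS, treated at final 10000 nM-0.61 nM in duplicate. After 168 h incubation, viability read with CCK-8.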

N#Cc1ccc(O[C@H]2CC[C@H](NC(=O)c3ccc(C4CCN(C5CN(c6cc7onc(C8CCC(=O)NC8=O)c7c7ccccc67)C5)CC4)nn3)CC2)cc1Cl (stereo partly drawn) [Compound 48]
DC50 (AR in LNCaP cells; HTRF): ≤ 20 nM
Dmax (AR in LNCaP cells; maximum degradation rate): > 80%
IC50 (LNCaP cells): < 1000 nM
